Experimental data reported in patent US12060349B2, “Glucosylceramide synthase inhibitors” (Genzyme Corporation, priority 2012, dated 2024).
Where two headings read alike, the source gives them in different places.

Legend:
[1] = system: jck mice; test: glucosylceramide synthase inhibition in a model of polycystic kidney disease (jck mice); type: in vivo, mouse; settings: FIG. 3
Source text: Mice homozygous for the Nek8jck mutation develop polycystic kidney disease (“jck mice”). […] Disease is progressive but not evident by kidney palpation until at least 4 to 5 weeks of age. Homozygotes generally remain active until shortly before death and usually die between 20 and 25 weeks of age. […] No histologic abnormalities are found in the liver, spleen, or pancreas. (Atala et al., 1993).
To evaluate the effects of a GCS inhibitor on polycystic kidney disease, Compound 156, (S)-quinuclidin-3-yl (2-(4′-(2-methoxyethoxy)-[1,1′-biphenyl]-4-yl)propan-2-yl)carbamate was administered in the feed of jck mice at doses of 15, 30 and 50 mg/kg. A second compound, quinuclidin-3-yl (2-(4′-fluoro-[1,1′-biphenyl]-3-yl)propan-2-yl)carbamate (hereinafter “GZ 161”) was administered in the feed of jck mice at a dose of 60 mg/kg.
Administration of the compound was started between 3 and 4 weeks of age, and continued until the mice were sacrificed at 9 weeks of age. The effect of the compounds on the disease phenotype was evaluated by measurement of body weight, blood urea nitrogen (“BUN”), and serum GL1. Additional effects on kidney/body weight (K/BW), cyst volume, BUN, kidney GL1, and serum GL1 were also measured at the end of life time point of the study.

[2] = system: B16 mouse melanoma cells; test: cell viability in the B16 cell-based assay (Viability, B16 IC50)
Method in brief: (§1)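 Two melanoma lines, mouse B16 and human C32, were treated and surface GM3 quantified by antibody immunofluorescence for IC50. A parallel viability readout gives the concentration killing 50% of cells, with values over 10 indicating no cell death.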

[3] = system: GM3 expression on the cell surface, C32 human melanoma cells; test: cell based phenotypic assay, cell surface GM3 by antibody mediated immunofluorescence, C32 (GM3 C32 IC50); settings: 50% inhibition of GM3 expression on the cell surface
Method in brief: as §1

[4] = system: C32 human melanoma cells; test: cell viability in the C32 cell-based assay (Viability, C32 IC50); settings: concentration causing 50% cell death, values greater than 10 represent a lack of cell death
Method in brief: as §1

[5] = molecular target: T1, glucosylceramide synthase (Homo sapiens, UniProt Q16739); test: microsomal assay measuring conversion of ceramide to glucosylceramide by HPLC (GCS IC50); type: biochemical; settings: concentration causing 50% inhibition of glucosylceramide synthase activity
T1 construct: Microsomes were isolated from A375 human melanoma cells; endogenous in cells; host or cells: A375 human melanoma cells (microsomal fraction, 100,000 g pellet)
T1 sequence (Q16739 1-394): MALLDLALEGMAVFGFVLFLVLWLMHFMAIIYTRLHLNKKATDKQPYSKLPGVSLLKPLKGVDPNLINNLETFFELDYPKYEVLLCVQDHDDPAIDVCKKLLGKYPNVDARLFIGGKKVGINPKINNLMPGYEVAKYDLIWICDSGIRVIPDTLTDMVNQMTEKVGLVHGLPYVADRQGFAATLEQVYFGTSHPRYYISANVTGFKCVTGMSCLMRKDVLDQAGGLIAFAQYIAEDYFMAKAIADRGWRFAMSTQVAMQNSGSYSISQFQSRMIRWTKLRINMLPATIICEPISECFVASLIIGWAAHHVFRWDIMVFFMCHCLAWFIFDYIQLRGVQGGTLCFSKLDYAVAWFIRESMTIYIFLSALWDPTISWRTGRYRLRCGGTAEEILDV
Method in brief: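 Microsomal preparation assayed for glucosylceramide synthase by direct HPLC measurement of ceramide conversion to glucosylceramide. GCS IC50 is the compound concentration giving 50% inhibition of enzyme activity.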

[6] = system: GM3 expression on the cell surface, B16 mouse melanoma cells; test: cell based phenotypic assay, cell surface GM3 by antibody mediated immunofluorescence, B16 (GM3 B16 IC50); settings: 50% inhibition of GM3 expression on the cell surface
Method in brief: as §1

[7] = system: K14 mouse; test: K14 mouse model of type 2 Gaucher disease; type: in vivo
Source text: As noted above, Gaucher Disease results from a deficiency of the lysosomal enzyme glucocerebrosidase (GC). In the most common phenotype of Gaucher disease (type 1), pathology is limited to the reticuloendothelial and skeletal systems and there are no neuropathic symptoms. See Barranger, Glucosylceramide lipidosis: Gaucher disease. In: Scriver CR BA, Sly WS, Valle D, editor. The Metabolic Basis of Inherited Disease. New York: McGraw-Hill. pp. 3635-3668 (2001). In neuropathic Gaucher disease (nGD), subdivided into type 2 and type 3 Gaucher disease, the deficiency of glucocerebrosidase (GC) causes glucosylceramide (GluCer; GL-1) and glucosylsphingosine (GluSph) to accumulate in the brain, leading to neurologic impairment. Type 2 Gaucher disease is characterized by early onset, rapid progression, extensive pathology in the viscera and central nervous system, and death usually by 2 years of age. Type 3 Gaucher disease, also known as subacute nGD, is an intermediate phenotype with varying age of onset and different degrees of severity and rates of progression. Goker-Alpan et al., The Journal of Pediatrics 143: 273-276 (2003). A recent development has produced the K14 lnl/lnl mouse model of type 2 Gaucher disease (hereinafter, the “K14 mouse”); this mouse model closely recapitulates the human disease showing ataxia, seizures, spasticity and a reduced median lifespan of only 14 days. Enquist et al., PNAS 104: 17483-17488 (2007).
As in patients with nGD, several mouse models of the disease have increased levels of GluCer and GluSph in the brain due to the deficiency in GC activity. Liu et al., PNAS 95: 2503-2508 (1998) and Nilsson, J. Neurochem 39: 709-718 (1982). The “K14” mice display a neuropathic phenotype that shares many pathologic features with type 2 Gaucher disease, such as neurodegeneration, astrogliosis, microglial proliferation, and increased levels of GluCer and GluSph in specific brain regions. Enquist et al. (2007).
Clinical management of patients affected by nGD poses a challenge for treating physicians both because of the severity of type 2 disease and the inability of the current therapies to cross the blood brain barrier (BBB). Current treatment of non-nGD relies on the intravenous delivery of recombinant human glucocerebrosidase (Imiglucerase; Cerezyme™) to replace the missing enzyme or the administration of glucosylceramide synthase inhibitors to attenuate substrate (GL-1) production. […] Current small molecule glucosylceramide synthase inhibitors in the clinic are not likely to address the neuropathic phenotypes of nGD.

[8] = all three dose groups (15, 30 and 50 mg/kg in feed), vs vehicle control group
[9] = in feed at 15, 30 and 50 mg/kg, associated with GL1 inhibition
[10] = Mus musculus, B16, read-out: Viability, B16 IC50
[11] = Homo sapiens, read-out: GM3 C32 IC50, C32 human melanoma cells
[12] = Homo sapiens, C32, read-out: Viability, C32 IC50, C32 cells
[13] = Mus musculus, read-out: GM3 B16 IC50, B16 mouse melanoma cells
[14] = Mus musculus, B16, B16 cells, concentration causing 50% cell death, values greater than 10 represent a lack of cell death, read-out: Viability, B16 IC50
[15] = Homo sapiens, C32 human melanoma cells, read-out: GM3 C32 IC50
[16] = Homo sapiens, C32, C32 cells, read-out: Viability, C32 IC50
[17] = Mus musculus, B16 mouse melanoma cells, read-out: GM3 B16 IC50
[18] = B16 cells, concentration causing 50% cell death, values greater than 10 represent a lack of cell death, read-out: Viability, B16 IC50
[19] = C32 human melanoma cells, read-out: GM3 C32 IC50
[20] = C32 cells, read-out: Viability, C32 IC50
[21] = B16 mouse melanoma cells, read-out: GM3 B16 IC50

Compound: COCCOc1ccc(-c2ccc(C(C)(C)NC(=O)O[C@@H]3CN4CCC3CC4)cc2)cc1 [Example 156, (S)-Quinuclidin-3-yl (2-(4′-(2-methoxyethoxy)-[1,1′-biphenyl]-4-yl)propan-2-yl)carbamate]
- body weight ([1]; 30 mg/kg in feed, vs vehicle control group): statistically different
- body weight ([1]; 50 mg/kg in feed, vs vehicle control group): statistically different
- BUN (blood urea nitrogen) [1, 8]: statistically different
- cyst volume [1, 8]: statistically different
- kidney to body weight (K/BW) [1, 8]: statistically different
- cyst growth [1, 9]: reduced
- kidney function [1, 9]: preservation
- GL1 levels ([1]; in feed at 15, 30 and 50 mg/kg, from 3-4 weeks to 9 weeks of age, vs vehicle control): dose-dependent inhibition
- IC50 [2, 10]: 4740 nM
- IC50 [3, 11]: 1.31 nM
- IC50 [4, 12]: 763 nM
- IC50 [5]: 4.14 nM
- IC50 [6, 13]: 43.7 nM

Compound: COCCOc1ccc(-c2nc(C(C)(C)NC(=O)N3CCN4CCC3CC4)cs2)cc1 [Example 345, N-(2-(2-(4-(2-Methoxyethoxy)phenyl)thiazol-4-yl)propan-2-yl)-1,4-diazabicyclo[3.2.2]nonane-4-carboxamide]
- IC50 [2, 14]: ≥ 10000 nM
- IC50 [3, 15]: 91 nM
- IC50 [4, 16]: 3160 nM
- IC50 [5]: 2540 nM
- IC50 [6, 17]: 369 nM

Compound: COCCOc1ccc(-c2ccc(C(C)(C)NC(=O)OC3CN4CCC3CC4)nc2)cc1 (centres unmarked) [Example 346, Quinuclidin-3-yl 2-(5-(4-(2-methoxyethoxy)phenyl)pyridin-2-yl)propan-2-ylcarbamate]
- IC50 [2, 10]: ≥ 10000 nM
- IC50 [3, 11]: 11.1 nM
- IC50 [4, 12]: 3160 nM
- IC50 [5]: 50.7 nM
- IC50 [6, 13]: 266 nM

Compound: COCCOc1ccc(-c2ccc(C(C)(C)NC(=O)OC3CCN4CCC3CC4)nc2)cc1 (centres unmarked) [Example 347, 1-Azabicyclo[3.2.2]nonan-4-yl 2-(5-(4-(2-methoxyethoxy)phenyl)pyridin-2-yl)propan-2-ylcarbamate]
- IC50 [2, 14]: ≥ 10000 nM
- IC50 [3, 15]: 5.82 nM
- IC50 [4, 16]: 1410 nM
- IC50 [5]: 36.8 nM
- IC50 [6, 17]: 150 nM

Compound: CC(C)(NC(=O)OC1CN2CCC1CC2)c1cccc(-c2ccc(F)cc2)c1 (centres unmarked) [GZ 161, quinuclidin-3-yl (2-(4′-fluoro-[1,1′-biphenyl]-3-yl)propan-2-yl)carbamate]
- kidney to body weight (K/BW) ([1]; 60 mg/kg in feed, vs vehicle control group): statistically different

Compound: CC(C)(NC(=O)OC1CN2CCC1CC2)c1cccc(-c2ccc(F)cc2)c1 (centres unmarked) [Gz161, Quinuclidin-3-yl (2-(4′-fluoro-[1,1′-biphenyl]-3-yl)propan-2-yl)carbamate]
- brain GluCer [7]: reduce
- brain GluSph [7]: reduce
- brain neuropathology [7]: reduced
- lifespan [7]: extended

Compound: N-(2-(4-(4-(Methylcarbamoyl)phenoxy)phenyl)propan-2-yl)-1,4-diazabicyclo[3.2.2]nonane-4-carboxamide [Example 305]
- IC50 [2, 18]: ≥ 10000 nM
- IC50 [3, 19]: 19.5 nM
- IC50 [4, 20]: 1000 nM
- IC50 [5]: 399 nM
- IC50 [6, 21]: 299 nM

Compound: N-(4-Methyl-1-azabicyclo[3.2.2]nonan-4-yl)-4-(3-(pyrimidin-5-yl)phenyl)piperazine-1-carboxamide [Example 27]
- IC50 [2, 18]: ≥ 10000 nM
- IC50 [3, 19]: 798 nM
- IC50 [4, 20]: ≥ 10000 nM
- IC50 [5]: 16500 nM
- IC50 [6, 21]: > 10000 nM

Compound: Quinuclidin-3-yl (2-(4′-(2-methoxyethoxy)-[1,1′-biphenyl]-3-yl)propan-2-yl)carbamate [Example 175]
- IC50 [2, 18]: ≥ 10000 nM
- IC50 [3, 19]: 1.87 nM
- IC50 [4, 20]: 9000 nM
- IC50 [5]: 2.5 nM
- IC50 [6, 21]: 71.3 nM

Compound: Quinuclidin-3-yl (2-(4′-((2-methoxyethoxy)methyl)-[1,1′-biphenyl]-3-yl)propan-2-yl)carbamate [Example 203]
- IC50 [2, 18]: ≥ 10000 nM
- IC50 [3, 19]: 6.53 nM
- IC50 [4, 20]: 1780 nM
- IC50 [5]: 29.6 nM
- IC50 [6, 21]: 96.3 nM
